The text below walks through data of US11439642B2 (Adverio Pharma GmbH, priority 2010, dated 2022).

The nature of this data set: Pharmacokinetic parameters following intravenous administration in rats. Format: in vivo. Particulars: rat; for MRT / half-life: male, Wistar, plasma, iv. As for the experimental part: The pharmacokinetic parameters of the substance are determined in male CD-1 mice, male Wistar rats and female beagles. The administration volume is 10 ml/kg for mice, 5 ml/kg for rats and 0.5 ml/kg for dogs. Intravenous administration is via a formulation of species-specific plasma/DMSO (99/1) in the case of mice and rats and via water/PEG400/ethanol (50/40/10) in the case of dogs. For easier removal of blood, a silicone catheter is inserted into the right Vena jugularis externa of the rats before the administration of substance. The surgical intervention takes place one day prior to the experiment with isofluran anaesthesia and administration of an analgetic (atropine/rimadyl (3/1) 0.1 ml s.c.). Substance administration is as i.v. bolus in the case of mice, as i.v. bolus or via a 15-minute infusion in the case of rats and via a 15-minute infusion in the case of dogs. Removal of blood is after 0.033, 0.083, 0.17, 0.5, 1, 2, 3, 4, 6, 7 and 24 hours in the case of mice and, after a 15-minute infusion, after 0.083, 0.25, 0.28 0.33, 0.42, 0.75, 1, 2, 3, 4, 6, 7 and 24 hours in the case of dogs and rats and after an i.v. bolus administration, after 0.033, 0.083, 0.17, 0.5, 1, 2, 3, 4, 6, 7 and 24 hours in the case of rats. For all species, oral administration of the dissolved substance via gavage is carried out based on a water/PEG400/ethanol formulation (50/40/10). Here, the removal of blood from rats and dogs is after 0.083, 0.17, 0.5, 0.75, 1, 2, 3, 4, 6, 7 and 24 hours. The blood is removed into heparinized tubes. The blood plasma is then obtained by centrifugation; if required, it can be stored at −20° C. until further processing.
An internal standard (ZK 228859) is added to the unknown samples, calibration samples and QCs, and the protein is precipitated using excess acetonitrile. After addition of an ammonium acetate buffer (0.01 M, pH 6.8 (Example 1/3) or pH 3.0 (Example 2)) and subsequent vortexing, the mixture is centrifuged at 1000 g and the supernatant is examined by LC-MS/MS (API 4000, AB Sciex). Chromatographic separation is carried out on an Agilent 1100-HPLC. The injection volume is 10 μl. The separation column used is a Phenomenex Luna 5μ C8(2) 100 A 50×2 mm, adjusted to a temperature of 40° C. For Example 1, a binary mobile phase gradient at 400 μl/min is used (A: 0.01M ammonium acetate buffer pH 6.8, B: 0.1% formic acid in acetonitrile): 0 min (90% A), 1 min (90% A), 3.5 min (15% A), 4.5 min (15% A), 4.6 min (90% A), 7 min (90% A). For Example 2, a binary mobile phase gradient at 500 μl/min is used instead (A: 0.01M ammonium acetate buffer pH 3.0, B: 0.1% formic acid in acetonitrile): 0 min (90% A), 1.5 min (90% A), 3.5 min (10% A), 4.5 min (10% A), 5 min (90% A), 7 min (90% A). For Example 3, a binary mobile solvent gradient at 500 μl/min is used instead (A: 0.01M ammonium acetate buffer pH 6.8, B: 0.1% formic acid in acetonitrile): 0 min (90% A), 1 min (90% A), 3 min (10% A), 4 min (10% A), 4.5 min (90% A), 6 min (90% A). The temperature of the Turbo V ion source is 500° C. The following MS instrument parameters are used: curtain gas 20 units (Example 1), 16 units (Example 2) or 15 units (Example 3), ion spray voltage 5 kV (Example 1/2) or 4.5 units (Example 3), gas 1 35 units (Example 1/3) or 25 units (Example 2), gas 2 30 units, CAD gas 4 units (Example 1/3) or 3 units (Example 2). The substances are quantified by peak heights or areas using extracted ion chromatograms of specific MRM experiments.
The plasma concentration/time plots determined are used to calculate the pharmacokinetic parameters such as AUC, Cmax, MRT (mean residence time), t1/2 (half life) and CL (clearance) employing the validated pharmacokinetic calculation programs KinEx (Vers. 2.5 and 3).
As the substance quantification is carried out in plasma, it is necessary to determine the blood/plasma distribution of the substance to be able to adjust the pharamacokinetic parameters in an appropriate manner. […]

Where [1] appears, read: 0.3 mg/kg i.v., 15-minute infusion.
Setting [2] is: 0.3 mg/kg i.v. bolus administration.

By MRT is commonly meant the average time that molecules of a dose stay in the body. Broadly, the half-life is the time in which the quantity being followed falls by half. The low end stands for fast loss, the high end for slow loss.

SMILES strings stand for the structures.

Under setting [1], `COC(=O)Nc1c(N)nc(-c2nn(Cc3ccccc3F)c3ncc(F)cc23)nc1N` [Example 1, Methyl {4,6-diamino-2-[5-fluoro-1-(2-fluorobenzyl)-1H-pyrazolo[3,4-b]pyridin-3-yl]pyrimidin-5-yl}carbamate] gave an MRT of 4.1 h, a half-life of 3.4 h, an AUCnorm of 4.36 kg·h/L and a CLblood of 0.29 lh/kg.

As for `COC(=O)N(C)c1c(N)nc(-c2nn(Cc3ccccc3F)c3ncc(F)cc23)nc1N` [Example 2], under setting [2], the MRT is 2.3 h, the half-life was 1.7 h, the AUCnorm was 1.79 kg·h/L and the CLblood is on record as 0.53 lh/kg.

Under setting [2], `COC(=O)N(CC(F)(F)F)c1c(N)nc(-c2nn(Cc3ccccc3F)c3ncc(F)cc23)nc1N` [Example 3, Methyl {4,6-diamino-2-[5-fluoro-1-(2-fluorobenzyl)-1H-pyrazolo[3,4-b]pyridin-3-yl]pyrimidin-5-yl}(2,2,2-trifluoroethyl)carbamate] had an MRT of 2.3 h, a half-life of 1.9 h, an AUCnorm of 1.36 kg·h/L and a CLblood of 1.02 lh/kg.
